Source: ChEMBL document CHEMBL1141633, “Synthesis and biological evaluation of chalcones as inhibitors of the voltage-gated potassium channel Kv1.3” (Bioorg Med Chem Lett, 2008)
pEC50: −log10 of the molar value.

Each compound was assayed against T1, Potassium voltage-gated channel subfamily A member 3 (Homo sapiens, UniProt P22001) (assay: Inhibition in Kv1.3 expressed in […] by patch clamp method).
T1 sequence (P22001 whole entry): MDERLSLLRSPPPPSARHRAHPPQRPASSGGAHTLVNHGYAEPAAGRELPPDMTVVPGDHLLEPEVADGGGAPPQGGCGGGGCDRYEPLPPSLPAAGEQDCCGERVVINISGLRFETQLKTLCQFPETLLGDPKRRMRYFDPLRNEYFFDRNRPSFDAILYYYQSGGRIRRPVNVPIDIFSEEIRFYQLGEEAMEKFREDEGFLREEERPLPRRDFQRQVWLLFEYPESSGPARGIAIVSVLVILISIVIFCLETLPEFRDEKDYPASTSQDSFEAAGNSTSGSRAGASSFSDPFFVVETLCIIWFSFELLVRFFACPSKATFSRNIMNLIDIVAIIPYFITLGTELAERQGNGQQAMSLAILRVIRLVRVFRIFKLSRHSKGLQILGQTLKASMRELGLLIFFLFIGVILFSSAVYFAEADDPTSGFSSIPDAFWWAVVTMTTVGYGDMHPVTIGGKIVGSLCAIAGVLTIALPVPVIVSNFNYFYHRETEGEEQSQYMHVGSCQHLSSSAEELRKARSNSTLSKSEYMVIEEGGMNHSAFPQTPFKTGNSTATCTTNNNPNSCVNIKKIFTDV
With `COc1c(C(=O)/C=C/c2ccccc2)c(O)cc2occc12` the pEC50 was 4.77.
With `COc1c(C(=O)/C=C/c2ccccc2)c(O)c(OC)c2occc12` the pEC50 was 6.40.
`COc1cccc(/C=C/C(=O)c2c(O)c(OC)c3occc3c2OC)c1` gave a pEC50 of 6.10.

These compounds were tested against T1, Potassium voltage-gated channel subfamily A member 3 (assay: Inhibition in Kv1.3 expressed in human Jurkat cells by patch clamp method).
Format: cell-based
For `COc1cccc(/C=C(\C)C(=O)c2c(O)c(OC)c3occc3c2OC)c1`, the pEC50 was 5.52.
Compound `COc1cccc(/C=C/C(=O)c2cc3ccoc3c(OC)c2O)c1` has a pEC50 of 5.77.
With `COc1cccc(/C=C/C(=O)c2cc(OC)c3occc3c2OC)c1` the pEC50 was 5.62.
`COc1c(C(=O)/C=C/c2ccccc2)cc(OC)c2occc12` was tested, and the pEC50 was 5.62.
Compound `COc1cccc(/C=C/C(=O)c2c(O)c(OC)c3occc3c2OC)c1` has a pEC50 of 6.05.
